Like-named read-outs stand apart in the source and are kept apart here.
Key:
[1] = target: T1, human H3 receptor (SK-N-MC cells) (Homo sapiens, UniProt Q9Y5N1); test: Cyclic AMP accumulation (β-galactosidase reporter, Schild analysis vs histamine); format: cell-based
T1 construct: expressed in transfected cells; host or cells: SK-N-MC sublines with CRE-beta-galactosidase reporter
Description: The reporter gene (β-galactosidase) is under the control of multiple cyclic AMP responsive elements. In 96-well plates, histamine was added directly to the cell media followed 5 min later by an addition of forskolin (5 μM final concentration). When appropriate, antagonists were added 10 min prior to agonist addition. After a 6-h incubation at 37° C., the media was aspirated and the cells washed with 200 μL of phosphate-buffered saline followed by a second aspiration. Cells were lysed with 25 μL 0.1× assay buffer (10 mM Na-phosphate, pH 8, 0.2 mM MgSO4, 0.01 mM MnCl2) and incubated at rt for 10 min. Cells were then incubated for 10 min with 100 μL of 1× assay buffer containing 0.5% Triton and 40 mM β-mercaptoethanol. Color was developed using 25 μL of 1 mg/mL substrate solution (chlorophenolred β-D galactopyranoside; Roche Molecular Biochemicals, Indianapolis, Ind.).

[2] = target: T2, human SERT (HEK293 membranes) (Homo sapiens, UniProt P31645); test: Human SERT binding (3H-citalopram displacement)
T2 construct: purchased Perkin-Elmer; host or cells: HEK293 membranes
T2 sequence (P31645 whole entry): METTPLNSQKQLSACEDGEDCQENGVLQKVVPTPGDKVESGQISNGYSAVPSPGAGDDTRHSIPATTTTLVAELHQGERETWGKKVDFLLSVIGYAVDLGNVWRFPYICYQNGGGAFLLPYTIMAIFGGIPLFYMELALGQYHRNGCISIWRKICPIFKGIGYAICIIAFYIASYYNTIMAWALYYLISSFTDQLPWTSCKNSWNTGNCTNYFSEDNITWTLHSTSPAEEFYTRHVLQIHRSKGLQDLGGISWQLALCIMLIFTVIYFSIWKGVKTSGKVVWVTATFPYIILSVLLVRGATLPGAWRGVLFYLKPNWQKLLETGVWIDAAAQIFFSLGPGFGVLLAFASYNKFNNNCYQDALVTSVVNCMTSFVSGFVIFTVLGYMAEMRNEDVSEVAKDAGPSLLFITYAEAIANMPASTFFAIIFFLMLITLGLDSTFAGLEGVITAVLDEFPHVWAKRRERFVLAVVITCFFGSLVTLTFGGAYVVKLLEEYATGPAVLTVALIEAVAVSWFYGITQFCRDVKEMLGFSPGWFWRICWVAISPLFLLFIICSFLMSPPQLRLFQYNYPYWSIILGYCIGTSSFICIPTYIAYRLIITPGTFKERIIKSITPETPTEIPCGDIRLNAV
Description: Nonspecific binding was determined in the presence of 10 μM fluoxetine for the SERT. The membranes were washed and the radioactivity was counted as above.

Rat SERT = target: T3, Rat SERT (Rattus norvegicus, UniProt P31652); test: Rat brain SERT binding ([3H]-Citalopram displacement)
T3 construct: A rat brain without cerebellum (Zivic Laboratories, Inc.—Pittsburgh, Pa.) was homogenized; tissue Zivic Laboratories, Inc; host or cells: rat brain without cerebellum, membranes
T3 sequence (P31652 whole entry): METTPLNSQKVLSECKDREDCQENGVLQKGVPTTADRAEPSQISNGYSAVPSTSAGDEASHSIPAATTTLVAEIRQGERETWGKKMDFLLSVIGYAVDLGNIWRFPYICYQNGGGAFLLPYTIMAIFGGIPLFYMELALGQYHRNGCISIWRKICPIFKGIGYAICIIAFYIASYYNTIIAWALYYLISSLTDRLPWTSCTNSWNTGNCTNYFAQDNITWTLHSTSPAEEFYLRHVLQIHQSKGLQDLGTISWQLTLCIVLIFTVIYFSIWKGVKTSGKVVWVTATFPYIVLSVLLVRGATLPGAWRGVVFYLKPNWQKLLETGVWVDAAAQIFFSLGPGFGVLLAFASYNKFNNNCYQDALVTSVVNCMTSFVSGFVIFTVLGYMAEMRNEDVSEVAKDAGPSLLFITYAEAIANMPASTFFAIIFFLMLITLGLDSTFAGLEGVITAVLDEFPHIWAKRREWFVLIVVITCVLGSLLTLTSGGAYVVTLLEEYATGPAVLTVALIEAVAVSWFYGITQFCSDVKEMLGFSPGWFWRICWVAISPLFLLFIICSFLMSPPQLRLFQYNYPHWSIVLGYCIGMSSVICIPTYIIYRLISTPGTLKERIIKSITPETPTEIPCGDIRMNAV

[3] = target: T4, cloned human H3 receptor, stably expressed in SK-N-MC cells (Homo sapiens, UniProt Q9Y5N1); test: H3 receptor binding (N-[3H]-α-methylhistamine displacement); conditions: SK-N-MC membranes, 0.8 nM N-[3H]-α-methylhistamine
T4 construct: expressed in transfected cells
T4 sequence (Q9Y5N1 whole entry): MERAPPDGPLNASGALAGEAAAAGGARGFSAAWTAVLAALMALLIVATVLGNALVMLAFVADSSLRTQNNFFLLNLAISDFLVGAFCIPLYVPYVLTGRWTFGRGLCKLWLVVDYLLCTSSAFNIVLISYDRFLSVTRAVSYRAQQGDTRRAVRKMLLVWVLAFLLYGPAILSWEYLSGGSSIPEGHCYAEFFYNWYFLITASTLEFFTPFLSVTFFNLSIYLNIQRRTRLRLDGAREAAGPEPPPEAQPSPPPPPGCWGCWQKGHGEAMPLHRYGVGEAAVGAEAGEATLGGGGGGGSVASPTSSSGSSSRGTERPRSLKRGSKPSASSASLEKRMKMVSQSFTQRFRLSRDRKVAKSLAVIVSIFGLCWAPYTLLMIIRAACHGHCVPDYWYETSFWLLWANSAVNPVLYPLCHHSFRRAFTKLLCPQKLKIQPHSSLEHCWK

H3 receptor = conditions: 60 min, average ± s.e.m.
Text: In this model, animals were introduced into a cage containing a fully-automated water drinking monitoring system. […] Results are shown as averages ±s.e.m. of n=8-13 animals.

[4] = system: synaptic reuptake of 5-HT; test: 5-HTP potentiation test (head twitches); format: in vivo; conditions: mice, 5 min interval, carbidopa 10 mg/kg + 5-HTP 40 mg/kg, average ± s.e.m.
[5] = system: serotonin and dopamine levels in the cortex; test: Microdialysis of serotonin and dopamine in cortex; format: in vivo; conditions: cortex of freely moving rats, 1 mg/kg subcutaneous, FIG. 1
Text: Microdialysis is used to measure the concentration of small biological molecules in the extracellular fluid of the brain (Parent, M. et al. Methods 2001, 23, 11-20). A small probe, containing a fine microdialysis membrane at its tip, is introduced into the brain of an animal. A buffered solution is infused through the catheter. Small molecules, such as monoamine neurotransmitters, diffuse through the pores in the microdialysis membrane and are captured in the solution. The samples are then analyzed by analytical techniques to quantitate the amount of neurotransmitter in the brain extracellular fluid. This technique has been used extensively to measure the effects of SERT inhibitors on levels of extracellular serotonin.
Microdialysis was used to measure the levels of serotonin and dopamine in the brain of freely moving rats after subcutaneous injection of Example 8A. […] Results are represented as the average ±s.d. of n=2-4 rats.

[6] = rat brain membranes, 0.6 nM [3H]-Citalopram, read-out: Rat SERT Ki

T1 sequence (Q9Y5N1 whole entry): as above

SMILES | Kb ([1]; read-out: H3 pA2 (converted)) | Ki [2] | Ki (Rat SERT; [6]) | Ki [3] | further results
c1ccc([C@H]2CN3CCC[C@H]3c3cc(OCCCN4CCCCC4)ccc32)cc1 (relative stereo) [Example 1A, Cis-6-Phenyl-9-(3-piperidin-1-yl-propoxy)-1,2,3,5,6,10b-hexahydro-pyrrolo[2,1a]isoquinoline] | 0.2 nM | 4 nM | 2 nM | 0.9 nM | –
FC(F)(F)Oc1ccc([C@H]2CN3CCC[C@H]3c3cc(OCCCN4CCCCC4)ccc32)cc1 (relative stereo) [Example 17] | 6.31 nM | 7 nM | 11 nM | 4 nM | –
COc1cccc([C@H]2CN3CCC[C@H]3c3cc(OCCCN4CCCCC4)ccc32)c1 (relative stereo) [Example 10A, Cis-6-(3-Methoxy-phenyl)-9-(3-piperidin-1-yl-propoxy)-1,2,3,5,6,10b-hexahydro-pyrrolo[2,1-a]isoquinoline] | 0.158 nM | 2 nM | 5 nM | 2 nM | –
COc1ccc([C@H]2CN3CCC[C@@H]3c3cc(OCCCN4CCOCC4)ccc32)cc1 [Example 94, (1R,6R)-6-(4-Methoxy-phenyl)-9-(3-morpholin-4-yl-propoxy)-1,2,3,5,6,10b-hexahydro-pyrrolo[2,1-a]isoquinoline] | – | 111 nM | 53 nM | 4 nM | –
CN(C)c1ccc([C@H]2CN3CCC[C@H]3c3cc(OCCCN4CCCCC4)ccc32)cc1 (relative stereo) [Example 30] | – | 2 nM | 3 nM | 2 nM | –
COc1ccc([C@H]2CN3CCC[C@H]3c3cc(OCCCN4CCCCC4)ccc32)cc1 (relative stereo) [Example 8A, Cis-6-(4-Methoxy-phenyl)-9-(3-piperidin-1-yl-propoxy)-1,2,3,5,6,10b-hexahydro-pyrrolo[2,1-a]isoquinoline] | – | – | – | – | Water Consumed (H3 receptor; Example 8A (1 mg/kg) i.p. + Imetit (1 mg/kg) after 24 h): 1.99 ± 0.68 mL; Water Consumed (H3 receptor; Example 8A (3 mg/kg) i.p. + Imetit (1 mg/kg) after 24 h): 1.65 ± 0.51 mL; Water Consumed (H3 receptor; Example 8A (10 mg/kg) i.p. + Imetit (1 mg/kg) after 24 h, p = 0.022 compared to imetit-treated animals): *0.25 ± 0.15 mL; head twitch frequency ([4]; 3 mg/kg, Group 1 (1 h)): 6.0 ± 1.2 (3); head twitch frequency ([4]; 3 mg/kg, Group 2 (24 h)): 24.0 ± 2.1 (4); head twitch frequency ([4]; 10 mg/kg, Group 1 (1 h)): 2.0 ± 0.6 (3); head twitch frequency ([4]; 10 mg/kg, Group 2 (24 h)): 41.3 ± 5.2 (3); dopamine (DA) levels by microdialysis [5]: slow, persistent increase; serotonin (5-HT) levels by microdialysis [5]: slow, persistent increase
COc1ccc([C@@H]2CN3CCC[C@@H]3c3cc(OCCCN4CCOCC4)ccc32)cc1 [Example 92, (1R,6S)-6-(4-Methoxy-phenyl)-9-(3-morpholin-4-yl-propoxy)-1,2,3,5,6,10b-hexahydro-pyrrolo[2,1-a]isoquinoline] | 15.8 nM | 4 nM | 2.2 nM | 16 nM | –
C[Si](C)(C)C#Cc1cccc([C@H]2CN3CCC[C@H]3c3cc(OCCCN4CCCCC4)ccc32)c1 (relative stereo) [Example 33] | – | – | – | 7 nM | Kb [1]: 7.94 nM; Ki (Rat SERT): 33 nM
Oc1ccc([C@H]2CN3CCC[C@H]3c3cc(OCCCN4CCCCC4)ccc32)cc1 (relative stereo) [Example 9A] | 0.316 nM | 58 nM | 9 nM | 2 nM | –
c1ccc([C@@H]2CN3CCC[C@H]3c3cc(OCCCN4CCCCC4)ccc32)cc1 (relative stereo) [Example 1B, Trans-6-Phenyl-9-(3-piperidin-1-yl-propoxy)-1,2,3,5,6,10b-hexahydro-pyrrolo[2,1a]isoquinoline] | 0.251 nM | – | 138 nM | 0.2 nM | –
COc1ccc([C@H]2CN3CCC[C@H]3c3cc(OC4CCN(C(C)C)CC4)ccc32)cc1 (relative stereo) [Example 28] | – | 5 nM | 4 nM | 0.4 nM | –
C[Si](C)(C)C#Cc1ccc([C@H]2CN3CCC[C@H]3c3cc(OCCCN4CCCCC4)ccc32)cc1 (relative stereo) [Example 36] | – | – | – | 4 nM | Kb [1]: 10 nM; Ki (Rat SERT): 15 nM
Clc1cccc([C@@H]2CN3CCC[C@H]3c3cc(OCCCN4CCCCC4)ccc32)c1 (relative stereo) [Example 11A, Cis-6-(3-Chloro-phenyl)-9-(3-piperidin-1-yl-propoxy)-1,2,3,5,6,10b-hexahydro-pyrrolo[2,1-a]isoquinoline] | 0.316 nM | 0.6 nM | 4 nM | 1 nM | –
COc1ccc([C@H]2CN3CCC[C@H]3c3cc(OCCCN4CCOC[C@@H]4C)ccc32)cc1 [Example 46, Cis-6-(4-Methoxy-phenyl)-9-[3-(3S-methyl-morpholin-4-yl)-propoxy]-1,2,3,5,6,10b-hexahydro-pyrrolo[2,1-a]isoquinoline] | – | 9 nM | 14 nM | 4 nM | –
N#Cc1ccc([C@@H]2CN3CCC[C@H]3c3cc(OCCCN4CCCCC4)ccc32)cc1 (relative stereo) [Example 41A, Cis-4-[9-(3-Piperidin-1-yl-propoxy)-1,2,3,5,6,10b-hexahydro-pyrrolo[2,1-a]isoquinolin-6-yl]-benzonitrile] | 0.794 nM | 59 nM | 25 nM | 1 nM | –
O=[N+]([O-])c1ccc([C@@H]2CN3CCC[C@H]3c3cc(OCCCN4CCCCC4)ccc32)cc1 (relative stereo) [Example 2B, Trans-6-(4-Nitro-phenyl)-9-(3-piperidin-1-yl-propoxy)-1,2,3,5,6,10b-hexahydro-pyrrolo[2,1-a]isoquinoline] | 1.58 nM | – | 544 nM | 31 nM | –
N#Cc1ccc([C@H]2CN3CCC[C@H]3c3cc(OCCCN4CCCCC4)ccc32)cc1 (relative stereo) [Example 41B, Trans-4-[9-(3-Piperidin-1-yl-propoxy)-1,2,3,5,6,10b-hexahydro-pyrrolo[2,1-a]isoquinolin-6-yl]-benzonitrile] | 0.794 nM | – | 6 nM | 1 nM | –
FC(F)(F)c1cccc([C@H]2CN3CCC[C@H]3c3cc(OCCCN4CCCCC4)ccc32)c1 (relative stereo) [Example 67] | 0.501 nM | 9 nM | 22 nM | 2 nM | –
COc1ccc([C@@H]2CN3CCC[C@H]3c3cc(OCCCN4CCOCC4)ccc32)cc1 [Example 95, (1S,6S)-6-(4-Methoxy-phenyl)-9-(3-morpholin-4-yl-propoxy)-1,2,3,5,6,10b-hexahydro-pyrrolo[2,1-a]isoquinoline] | – | 13 nM | 11 nM | 6 nM | –

From patent publication US8273762B2, “Hexahydro-pyrrolo-isoquinoline compounds” (Janssen Pharmaceutica NV, priority 2005, dated 2012)
